This note sets out measurements from article PMC9005804, “GPR105-Targeted Therapy Promotes Gout Resolution as a Switch Between NETosis and Apoptosis of Neutrophils” (Frontiers in Immunology, 2022).

The test addresses T1, GPR105 (Homo sapiens, UniProt Q15391).
T1 construct: gene P2RY14
T1 sequence (Q15391 1-338): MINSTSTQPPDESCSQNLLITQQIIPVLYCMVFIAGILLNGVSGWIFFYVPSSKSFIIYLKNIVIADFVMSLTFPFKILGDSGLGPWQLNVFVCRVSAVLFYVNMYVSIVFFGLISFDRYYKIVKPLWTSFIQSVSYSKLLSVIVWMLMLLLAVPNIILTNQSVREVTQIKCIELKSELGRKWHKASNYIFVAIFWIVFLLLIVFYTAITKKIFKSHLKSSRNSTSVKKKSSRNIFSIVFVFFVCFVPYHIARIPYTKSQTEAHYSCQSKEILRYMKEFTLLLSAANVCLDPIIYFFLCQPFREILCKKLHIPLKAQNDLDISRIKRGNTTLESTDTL
The test can be described thus: cAMP-Glo luminescence assay in HEK293-hGPR105 cells (forskolin plus UDPG stimulated), antagonism. It counts as cell-based.

Broadly, the IC50 is the concentration needed to halve the response being measured. Regarding `C/C=C/C#CC#C[C@@H](O)[C@@H](/C=C/CCCO)O[C@@H]1O[C@H](CO)[C@@H](O)[C@H](O)[C@H]1O` [LBT, lobetyolin], the concentration for half-maximal inhibition (IC50) amounted to 5.1 µM.
